From ChEMBL document CHEMBL5661982 (Mol Cancer Ther, 2012)
The source made the active and inactive calls. The calls are words filed in the database; no cut-off is given here.

How the values were obtained:
MDA-MB-231 [1] = assay: Antiproliferative activity against human MDA-MB-231 cells over expressing c-Met assessed as reduction in cell viability after 48 to 72 hrs by MTT assay
HT-29 [2] = assay: Antiproliferative activity against human HT-29 cells over expressing c-Met assessed as reduction in cell viability after 48 to 72 hrs by MTT assay
COLO 205 [3] = assay: Antitumor activity against human COLO 205 cells xenografted in athymic nu/nu mouse assessed as tumor growth inhibition at 40 mg/kg/day, po for 18 days relative to control; conditions: COLO 205, po, 432 h, read-out: TGI
HT-29 [4] = conditions: Homo sapiens, dose 50.0 mg/kg/day, route po, time 21.0 day
GTL 16 [5] = conditions: Homo sapiens, dose 0.3-10 mg/kg, route po, time 4.0 day
HT-29 [6] = assay: Antitumor activity against human HT-29 cells xenografted in athymic nu/nu mouse assessed as tumor growth inhibition at 50 mg/kg/day, po for 21 days relative to control; conditions: HT-29, po, 504 h, read-out: TGI
GTL 16 [7] = conditions: Homo sapiens, dose 0.3-10 mg/kg, route po, time 4.0 day; remark: listed apart in the source
GTL 16 [8] = conditions: Homo sapiens, dose 0.3-10 mg/kg, route po, time 4.0 day; remark: listed apart in the source
MDA-MB-231 [9] = assay: Antitumor activity against human MDA-MB-231 cells xenografted in athymic nu/nu mouse assessed as tumor growth inhibition at 40 mg/kg/day, po for 14 days relative to control; conditions: MDA-MB-231, po, 336 h, read-out: TGI
A549 = assay: Antiproliferative activity against human A549 cells over expressing c-Met assessed as reduction in cell viability after 48 to 72 hrs by MTT assay
[10] = Inhibition of human c-Met V1092I mutant expressed in mouse NIH3T3 cells assessed as reduction in HGF-stimulated c-Met phosphorylation incubated for 1 hr by ELISA analysis; conditions: NIH3T3, 1 h
SLC34A2-ROS1 = SLC34A2-ROS1 (Homo sapiens, UniProt P08922); assay: Inhibition of SLC34A2-Ros phosphorylation in human HCC87 cells incubated for 1 hr by sandwich ELISA analysis
Sequence of SLC34A2-ROS1 (P08922 whole entry): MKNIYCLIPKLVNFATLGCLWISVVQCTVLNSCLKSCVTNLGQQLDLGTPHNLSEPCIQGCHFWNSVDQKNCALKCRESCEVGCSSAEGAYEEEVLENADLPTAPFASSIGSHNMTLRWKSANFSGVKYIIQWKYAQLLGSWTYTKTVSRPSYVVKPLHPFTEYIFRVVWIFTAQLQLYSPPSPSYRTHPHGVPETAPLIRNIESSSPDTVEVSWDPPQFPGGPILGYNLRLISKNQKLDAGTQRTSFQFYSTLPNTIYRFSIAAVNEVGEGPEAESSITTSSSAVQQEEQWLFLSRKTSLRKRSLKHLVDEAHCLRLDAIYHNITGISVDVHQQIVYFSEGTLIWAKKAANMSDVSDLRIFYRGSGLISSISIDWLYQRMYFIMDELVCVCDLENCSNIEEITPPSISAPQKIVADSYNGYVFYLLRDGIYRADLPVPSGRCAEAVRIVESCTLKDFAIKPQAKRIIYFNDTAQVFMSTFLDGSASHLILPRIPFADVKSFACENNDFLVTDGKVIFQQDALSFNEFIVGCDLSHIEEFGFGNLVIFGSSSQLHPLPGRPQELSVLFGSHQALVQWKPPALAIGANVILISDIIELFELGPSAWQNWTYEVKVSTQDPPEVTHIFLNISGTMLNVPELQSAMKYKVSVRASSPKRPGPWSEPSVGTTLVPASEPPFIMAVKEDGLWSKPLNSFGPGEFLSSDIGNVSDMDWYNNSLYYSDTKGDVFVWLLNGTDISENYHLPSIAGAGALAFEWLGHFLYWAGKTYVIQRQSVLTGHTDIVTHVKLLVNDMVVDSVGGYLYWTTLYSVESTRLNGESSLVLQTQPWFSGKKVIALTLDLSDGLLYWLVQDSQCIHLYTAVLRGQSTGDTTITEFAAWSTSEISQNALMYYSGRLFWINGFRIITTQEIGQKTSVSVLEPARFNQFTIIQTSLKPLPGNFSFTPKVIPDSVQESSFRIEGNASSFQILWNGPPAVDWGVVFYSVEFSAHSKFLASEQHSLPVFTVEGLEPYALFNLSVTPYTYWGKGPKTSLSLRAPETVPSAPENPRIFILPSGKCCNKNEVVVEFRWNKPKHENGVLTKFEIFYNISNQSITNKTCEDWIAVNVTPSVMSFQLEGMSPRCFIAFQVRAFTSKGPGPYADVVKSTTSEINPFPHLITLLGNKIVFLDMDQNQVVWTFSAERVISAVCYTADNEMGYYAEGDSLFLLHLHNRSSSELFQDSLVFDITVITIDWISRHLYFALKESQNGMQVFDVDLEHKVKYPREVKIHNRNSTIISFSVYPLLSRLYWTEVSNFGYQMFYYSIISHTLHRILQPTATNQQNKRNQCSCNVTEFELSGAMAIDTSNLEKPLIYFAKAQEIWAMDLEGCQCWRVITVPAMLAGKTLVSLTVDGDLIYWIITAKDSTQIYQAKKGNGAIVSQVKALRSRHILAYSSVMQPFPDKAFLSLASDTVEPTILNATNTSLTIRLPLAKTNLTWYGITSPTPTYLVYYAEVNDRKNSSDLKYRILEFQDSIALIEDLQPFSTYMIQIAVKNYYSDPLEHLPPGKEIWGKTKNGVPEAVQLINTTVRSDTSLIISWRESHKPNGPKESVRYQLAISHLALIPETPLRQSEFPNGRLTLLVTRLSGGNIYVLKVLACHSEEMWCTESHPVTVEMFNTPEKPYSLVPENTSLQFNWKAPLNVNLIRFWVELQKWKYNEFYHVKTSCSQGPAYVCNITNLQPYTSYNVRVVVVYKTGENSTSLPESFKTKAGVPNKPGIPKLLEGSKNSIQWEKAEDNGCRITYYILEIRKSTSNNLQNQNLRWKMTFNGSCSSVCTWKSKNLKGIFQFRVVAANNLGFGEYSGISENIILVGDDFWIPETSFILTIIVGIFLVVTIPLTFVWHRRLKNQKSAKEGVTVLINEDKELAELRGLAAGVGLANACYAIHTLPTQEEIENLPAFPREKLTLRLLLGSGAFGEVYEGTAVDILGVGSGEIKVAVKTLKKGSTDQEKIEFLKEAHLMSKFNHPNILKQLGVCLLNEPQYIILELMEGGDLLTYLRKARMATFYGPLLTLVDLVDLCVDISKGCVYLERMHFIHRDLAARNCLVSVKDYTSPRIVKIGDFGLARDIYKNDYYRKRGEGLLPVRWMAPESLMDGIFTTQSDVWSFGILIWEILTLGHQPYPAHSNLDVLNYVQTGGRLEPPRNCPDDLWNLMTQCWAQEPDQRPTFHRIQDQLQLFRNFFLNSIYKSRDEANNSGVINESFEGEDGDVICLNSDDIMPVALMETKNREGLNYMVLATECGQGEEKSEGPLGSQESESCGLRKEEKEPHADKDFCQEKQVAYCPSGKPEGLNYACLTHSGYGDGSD
Sequence of SLC34A2-ROS1 (O95436 whole entry, further chain): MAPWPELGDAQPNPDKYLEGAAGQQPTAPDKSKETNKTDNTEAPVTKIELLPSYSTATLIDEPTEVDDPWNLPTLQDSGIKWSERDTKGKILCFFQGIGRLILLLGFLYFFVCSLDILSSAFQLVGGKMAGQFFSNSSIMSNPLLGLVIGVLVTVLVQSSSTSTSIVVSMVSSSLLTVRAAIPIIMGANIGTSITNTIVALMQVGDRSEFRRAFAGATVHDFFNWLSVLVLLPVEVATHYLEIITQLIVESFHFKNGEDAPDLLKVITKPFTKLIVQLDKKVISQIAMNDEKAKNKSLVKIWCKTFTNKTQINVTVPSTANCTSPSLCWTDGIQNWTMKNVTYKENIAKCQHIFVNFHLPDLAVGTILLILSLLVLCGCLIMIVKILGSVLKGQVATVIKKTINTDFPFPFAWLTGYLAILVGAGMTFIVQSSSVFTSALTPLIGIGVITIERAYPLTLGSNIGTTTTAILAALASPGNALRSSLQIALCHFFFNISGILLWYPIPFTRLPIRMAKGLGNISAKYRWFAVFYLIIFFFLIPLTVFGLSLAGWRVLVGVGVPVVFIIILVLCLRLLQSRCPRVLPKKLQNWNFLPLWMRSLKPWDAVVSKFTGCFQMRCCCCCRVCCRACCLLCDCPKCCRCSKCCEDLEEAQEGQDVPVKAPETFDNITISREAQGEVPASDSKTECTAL

GTL 16 cell line = assay: Antitumor activity against human GTL 16 cells xenografted in athymic nu/nu mouse assessed as tumor growth inhibition at 0.5 mg/kg, sc minipump administered for 14 days relative to control; conditions: GTL 16, 336 h, read-out: TGI
[11] = Inhibition of c-Met T11010I mutant phosphorylation in human HOP-92 cells assessed as reduction in HGF-stimulated c-Met phosphorylation incubated for 1 hr by ELISA analysis; conditions: HOP-92, 1 h
U-87 MG [12] = assay: Antitumor activity against human U-87 MG cells xenografted in athymic nu/nu mouse assessed as tumor growth inhibition at 30 mg/kg, po for 9 days relative to control; conditions: 216 h, read-out: TGI
NCI-H441 [13] = assay: Inhibition of cell migration in HGF-stimulated human NCI-H441 cells over expressing c-Met incubated for 48 hrs by Matrigel based analysis; conditions: NCI-H441, 48 h
HT-29 [14] = conditions: Homo sapiens, dose 50.0 mg/kg/day, route po, time 21.0 day; remark: listed apart in the source
HUVEC = assay: Inhibition of cell invasion in HGF-stimulated HUVEC cells incubated for 48 hrs by Matrigel based analysis; conditions: Homo sapiens
MDA-MB-468 = assay: Antiproliferative activity against human MDA-MB-468 cells over expressing c-Met assessed as reduction in cell viability after 48 to 72 hrs by MTT assay
U-87 MG [15] = assay: Antiproliferative activity against human U-87 MG cells over expressing c-Met assessed as reduction in cell viability after 48 to 72 hrs by MTT assay
DLD-1 = assay: Antiproliferative activity against human DLD-1 cells over expressing c-Met assessed as reduction in cell viability after 48 to 72 hrs by MTT assay
NCI-H441 [16] = assay: Inhibition of cell invasion in HGF-stimulated human NCI-H441 cells over expressing c-Met incubated for 48 hrs by Matrigel based analysis; conditions: NCI-H441, 48 h
HT-29 [17] = conditions: Homo sapiens, dose 50.0 mg/kg/day, route po, time 21.0 day; remark: listed apart in the source
Insulin receptor = Insulin receptor (Homo sapiens, UniProt P06213); assay: Inhibition of Insulin receptor expressed in HEK293 cells assessed as reduction insulin-stimulated INSR phosphorylation incubated for 1 hr by sandwich ELISA analysis
U-87 MG [18] = conditions: Homo sapiens; U-87MG ATCC; dose 5-50 mg/kg, route po, time 3.0 day
COLO 205 [19] = assay: Antiproliferative activity against human COLO 205 cells over expressing c-Met assessed as reduction in cell viability after 48 to 72 hrs by MTT assay
GTL 16 [20] = conditions: Homo sapiens, dose 1-30 mg/kg, route po
GTL 16 [21] = conditions: Homo sapiens, dose 0.3-10 mg/kg, route po, time 4.0 day; remark: listed apart in the source
U-87MG ATCC [22] = conditions: Homo sapiens, dose 5-50 mg/kg, route po, time 3.0 day
[23] = target: Macrophage-stimulating protein receptor (Mus musculus, UniProt Q62190); assay: Inhibition of Ron expressed in mouse NIH3T3 cells assessed as reduction in MSP-stimulated RON phosphorylation incubated for 1 hr by sandwich ELISA analysis
U-87MG ATCC [24] = conditions: Homo sapiens, dose 5-50 mg/kg, route po, time 3.0 day; remark: listed apart in the source
HT-29 [25] = assay: Antitumor activity against human HT-29 cells transfected with RON shRNA xenografted in athymic nu/nu mouse assessed as tumor growth inhibition at 50 mg/kg/day, po for 21 days relative to control; conditions: HT-29, po, 504 h, read-out: TGI
[26] = target: Tyrosine-protein kinase Mer (Homo sapiens, UniProt Q12866); assay: Inhibition of MER expressed in HEK293 cells assessed as reduction in Gas6-stimulated MER phosphorylation incubated for 1 hr by sandwich ELISA analysis
Sequence of Tyrosine-protein kinase Mer (Q12866 whole entry): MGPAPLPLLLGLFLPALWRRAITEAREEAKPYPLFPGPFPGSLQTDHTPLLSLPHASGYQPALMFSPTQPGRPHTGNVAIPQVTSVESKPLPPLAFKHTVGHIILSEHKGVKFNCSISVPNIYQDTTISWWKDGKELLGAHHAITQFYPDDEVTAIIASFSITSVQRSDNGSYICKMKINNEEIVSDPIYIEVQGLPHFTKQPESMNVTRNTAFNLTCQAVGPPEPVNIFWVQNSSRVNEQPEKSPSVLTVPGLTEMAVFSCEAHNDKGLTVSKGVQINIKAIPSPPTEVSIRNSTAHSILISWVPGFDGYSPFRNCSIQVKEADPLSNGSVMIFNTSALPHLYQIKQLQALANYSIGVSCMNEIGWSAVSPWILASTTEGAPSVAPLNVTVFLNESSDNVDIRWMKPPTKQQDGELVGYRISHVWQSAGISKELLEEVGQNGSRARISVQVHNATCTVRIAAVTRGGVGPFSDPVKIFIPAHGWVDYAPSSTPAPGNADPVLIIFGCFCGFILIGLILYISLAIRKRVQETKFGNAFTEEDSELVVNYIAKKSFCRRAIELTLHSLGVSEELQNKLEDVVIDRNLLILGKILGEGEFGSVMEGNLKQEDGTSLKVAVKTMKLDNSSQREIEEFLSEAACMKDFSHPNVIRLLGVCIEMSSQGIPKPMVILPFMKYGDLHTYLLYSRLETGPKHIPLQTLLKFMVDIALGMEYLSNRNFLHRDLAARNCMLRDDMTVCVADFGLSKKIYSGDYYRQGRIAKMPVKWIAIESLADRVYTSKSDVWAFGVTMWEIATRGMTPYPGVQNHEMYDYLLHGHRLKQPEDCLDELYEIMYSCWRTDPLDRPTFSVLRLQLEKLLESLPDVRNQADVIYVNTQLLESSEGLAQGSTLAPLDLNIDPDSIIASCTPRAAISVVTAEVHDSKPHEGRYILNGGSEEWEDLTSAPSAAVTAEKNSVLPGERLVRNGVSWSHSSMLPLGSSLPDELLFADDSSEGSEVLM

HCT-116 = assay: Antiproliferative activity against human HCT-116 cells over expressing c-Met assessed as reduction in cell viability after 48 to 72 hrs by MTT assay

In the case of `OCCn1cc(-c2cnc3nnn(Cc4ccc5ncccc5c4)c3n2)cn1` [PF-04217903], the IC50 (MDA-MB-231 [1]) is reported as > 10 µM, the IC50 (HT-29 [2]) is reported as > 10 µM and the inhibition in vivo at 40 mg/kg/day (COLO 205 [3]) is reported as 44%. The inhibition (HT-29 [4]) was “Active”, the inhibition (GTL 16 [5]) was “Dose-Dependent Effect” and the inhibition in vivo at 50 mg/kg/day (HT-29 [6]) was 40%. For the same molecule, the inhibition (GTL 16 [7]) was “Dose-Dependent Effect”, the inhibition (GTL 16 [8]) was “Dose-Dependent Effect” and the inhibition in vivo at 40 mg/kg/day (MDA-MB-231 [9]) was 43%. For the same molecule, the IC50 (A549) was > 10 µM, the IC50 [10] was 0.016 µM and the IC50 (SLC34A2-ROS1) was > 10 µM. The inhibition in vivo at 0.5 mg/kg (GTL 16 cell line) was 46%, the IC50 [11] was 0.0067 µM and the inhibition in vivo at 30 mg/kg (U-87 MG [12]) was 84%. For the same molecule, the IC50 (NCI-H441 [13]) was 0.011 µM, the inhibition (HT-29 [14]) was “Active” and the IC50 (HUVEC) was 0.027 µM. For the same molecule, the IC50 (MDA-MB-468) was > 10 µM, the IC50 (U-87 MG [15]) was > 10 µM and the IC50 (DLD-1) was > 10 µM. The IC50 (NCI-H441 [16]) was 0.0125 µM, the inhibition (HT-29 [17]) was “inactive” and the IC50 (Insulin receptor) was > 10 µM. For the same molecule, the inhibition (U-87 MG [18]) was “Active”, the IC50 (COLO 205 [19]) was > 10 µM and the inhibition (GTL 16 [20]) was “Active”. The inhibition (GTL 16 [21]) was “Dose-Dependent Effect”, the inhibition (U-87MG ATCC [22]) was “Active” and the IC50 [23] was > 10 µM. For the same molecule, the inhibition (U-87MG ATCC [24]) was “inactive”, the inhibition in vivo at 50 mg/kg/day (HT-29 [25]) was 77% and the IC50 [26] was > 10 µM. For the same molecule, the IC50 (HCT-116) was > 10 µM.
